Blank lines part the entries; values can stand above or below the compound they belong to.
What was measured:
[1] = Systemic toxicity of pPhD NPs (body weight, H&E); format: in vivo
Description: Tumor volume and body weight measurements. The body weights and tumor sizes were monitored three times a week, and the tumor volume was calculated by the following formula: Tumor volume=Length×(Width/2)^2.
H&E evaluation. All laser-treated tumors were collected and stained with hematoxylin and eosin (H&E) to evaluate the effect of phototherapy. The main organs of each group, including heart, liver, spleen, lung, kidney, small intestine, were collected for H&E assay to evaluate the toxicity of the materials.

[2] = system: OSC-3 cells; assay: Cell viability with or without laser
Description: The synergistic effect of the chemotherapy and phototherapy of pPhD NPs was evaluated. OSC-3 cells were incubated with different concentrations of free photosensitizer (Phy), free chemotherapeutic drug (DOX) and pPhD NPs, respectively, then treated with or without laser (FIG. 11i).

[3] = system: A549 human lung cancer cells; assay: Cell uptake and intracellular ROS production; format: cell-based; settings: upon laser/light illumination
Description: Cell uptake and intracellular ROS production. […] After three times of washes with PBS, cells were incubated with 50 μM DCF-DA for 30 minutes. Samples were treated with or without light (630 nm, Omnilux New-U LED panel) for 1 minute, and intracellular […] (based on Pa fluorescence) and ROS production were analyzed by flow cytometry ([…], BD Bioscience, SD, CA).

[4] = system: U87-MG tumour cells; assay: Cell viability (MTS) with or without laser; format: cell-based
Description: Cell viabilities evaluation. U87-MG cells were purchased from the American Type Culture Collection (ATCC, Manassas, Va., USA). Cells were cultured in RPMI 1640 Medium supplemented with 10% fetal bovine serum, 100 U/mL penicillin G, and […] streptomycin in a humidified 37° C. with 5% CO2. Cell viabilities were determined by MTS method. U87-MG cells were seeded in 96-well plates with a density of 5000 cells per well. The cells were incubated overnight until fully attached. The cells were treated with different concentrations of Pa, Ir, Pa and Ir mixture and PIN. 12 h later, the extracellular materials were washed off with PBS and replaced with fresh culture media. Laser treated group were exposed under a laser source of Omnilux New-U device (630 nm) for 3 min, and further incubated with non-laser treated cells for another 24 h. MTS was added to each well and further incubated for 2 h. The UV-vis absorbance at 495 nm with a reference wavelength of 630 nm was detected using a micro-plate reader using an SpectraMax M3 Multi-Mode Microplate Readers (Molecular Devices, LLC., CA, USA). Untreated cells in medium were used as controls. […]. Results were shown as the average cell viability [(ODtreat−ODblank)/(ODcontrol−ODblank)*100%] of triplicate wells.

[5] = system: A549 cells; assay: Cytotoxicity assay (MTS) with or without light; format: cell-based, human; settings: upon light treatment (630 nm, 3 min)
Description: Cytotoxicity assay. Cell viabilities were determined by MTS method according to manufactory manual (Promega, Madison, Wis.). A549 cells were seeded in 96-wells plates with a density of 5000 cells per well. […] Six hours later, medium was replaced with fresh complete media followed by illumination with 630 nm light for 3 minutes. After additional 24 hours incubation, MTS working solution was added and the absorbance at 490 nm was evaluated by SpectraMax M3 microplate reader. Experiments were performed in triplicate, and 3 independent experiments were conducted.

Compound: COc1cccc2c1C(=O)c1c(O)c3c(c(O)c1C2=O)C[C@@](O)(C(=O)CO)C[C@@H]3O[C@H]1C[C@H](N)[C@H](O)[C@H](C)O1 [DOX, doxorubicin]
body weight changes / systemic toxicity ([1]; during treatment): obvious body weights loss
lesion of major organs (H&E) ([1]; mouse, in vivo): obvious liver and heart toxicity
cytotoxicity [2]: notable anti-tumor efficacy

Compound: CCc1c2c(nc3ccc(OC(=O)N4CCC(N5CCCCC5)CC4)cc13)-c1cc3c(c(=O)n1C2)COC(=O)[C@]3(O)CC [Ir, irinotecan]
intracellular ROS production [3]: did not produce intracellular ROS

Compound: pheophorbide a-hydrazide [Phy]
cytotoxicity [2]: no obvious cytotoxicity

IC50 ([4]; with laser treatment (630 nm, 3 min)): ~50 µM
Compound: pheophorbide A [Pa]
cytotoxicity ([4]; without laser): no obvious cytotoxicity
IC50 [5]: 7 µM

From patent US11559585B2, “Conjugates of active pharmaceutical ingredients” (priority 2017, dated 2023)
